The values that follow come from US5231031A, “Method for assessing risk of diabetes-associated pathologic conditions and efficacy of therapies for such conditions” (priority 1990, dated 1993).

The conditions of data set [1]: compared with F3P; cited from earlier work.
A short description of data set [2]: Glycosylating activity and lability. An excerpt: A difficult problem encountered in the medical treatment of diabetes has been the inability to identify those diabetic patients who are at risk of experiencing some diabetes-associated pathologic condition, so as to effect timely intervention. […] Kato, M., Hayase, F., Shin, D. B., Oimomi, M. and Baba, S. (1989), The Maillard Reaction in Aging, Diabetes and Nutrition, J. W. Baynes and V. M. Monnier, eds, at 69-84 (Liss, New York, 1989).

A further data set relates to erythrocytes. The experiment in a line: Effect of fructose-3-phosphate on red cell viability, 31P NMR. Format: cell-based, human. How it is done:
FIGS. 3A-C are ^31 P NMR spectra showing the effect of fructose-3-phosphate on red cell viability.
Spectra were collected in 250-5000 scans using a 60° pulse and a 1.5 sec. repetition rate.
FIGS. 3A-C illustrates the results of an experiment which confirms that this indeed is the case for erythrocytes. […] This phenomenon indicates very strongly that F3P is indeed a toxic agent which, at sufficiently high concentration, leads to an irreversible decline in cell function and ultimately to cell death.

Data set [3] can be described thus: pKa of the phosphorylated metabolites (Table 1). Format: physicochemical. An excerpt:
While the toxic potential and precise structures of compounds a and b are not known, they have many characteristics in common with S3P and F3P, such as unique chemical shifts, large ^1 H-^31 P spin-spin coupling constants and unusually low pKa' values (see Table 1). In these properties, Compounds a and b differ substantially from other phosphomonoesters and thus appear to belong to the same class of compounds as S3P and F3P. […] There is a good correlation between these elevated concentrations and the presence of clinical symptoms of diabetic complications such as retinopathy, peripheral neuropathy and peripheral vascular disease. This correlation is especially striking when one compares the sum of the concentrations of compounds a and b with the concentration of S3P ([a]+[b]/[S3P]).
Compound (at pH 7.5) (Hz) pKa

[4] abbreviates: erythrocytes loaded with F3P, then 12 hrs. in fructose-free medium.

Turning to `O=CC(=O)C[C@H](O)[C@H](O)CO` [Compound 3dG, 3-deoxyglucosone], the “glycosylating and cross-linking potency” value in data set [1] was “even more potent Maillard glycosylating and cross-linking agent”.
Take `O=C(CO)[C@@H](OP(=O)(O)O)[C@H](O)[C@H](O)CO` [Compound F3P, fructose-3-phosphate]: the glycosylating potency entry in data set [2] is on record as “relatively potent glycosylating agent”. The lability result in data set [2] (especially in the presence of amines, breaks down to 3-deoxyglucosone) is recorded as “quite labile”. Also, in the data set on erythrocytes (at sufficiently high concentration), the toxicity to erythrocytes entry is “toxic agent”. In addition, in the data set on erythrocytes (setting [4]), the “concentration of ATP” value is listed as “dramatic decrease” and the “hemolysis of the cells” value is listed as “extensive hemolysis”. In data set [3], the pKa turned out to be 5.6.
As for `O=P(O)(O)O[C@@H]([C@H](O)[C@H](O)CO)[C@@H](O)CO` [Compound S3P, sorbitol-3-phosphate], the pKa in data set [3] is on record as 5.4.
